Earlier results, collected in patent US20250049842A1, “THERAPEUTIC BLOOD-ACID-SHIFTING COMPOSITIONS AND METHODS” (priority 2023, published 2025).

Conditions: for pKa (pKa1, first or only dissociation): step (1) HA/A−; for pKa2 (second dissociation): step (2)

| pKa2 (second dissociation) | pKa (third dissociation) (step (3)) | pKa (fourth dissociation) (step (4)) | Structure (SMILES) | pKa (pKa1, first or only dissociation) |
| --- | --- | --- | --- | --- |
| – | – | – | [O-][Cl+2]([O-])O [Chloric Acid] | < 1 |
| – | – | – | [O-][Cl+3]([O-])([O-])O [Perchloric Acid] | < 1 |
| – | – | – | CC(=O)C(=O)O [Pyruvic Acid] | 2.49 |
| 2.71 | 4.68 | 7.53 | Nc1nc2ncc(CNc3ccc(C(=O)N[C@@H](CCC(=O)O)C(=O)O)cc3)nc2c(=O)[nH]1 [Folic Acid, reference compound] | 1.63 |
| – | – | – | O=[N+]([O-])O [Nitric Acid] | < 1 |
| 6.91 | – | – | O=S(O)O [Sulfurous Acid] | 1.18 |
| – | – | – | O=NO [Nitrous] | 3.39 |
